The subject of experiment [1] is DPP-4 promoter. Description: DPP-4 promoter activity in VSMCs (luciferase reporter). Format: cell-based. The following applies: wild-type or eNOS-/- mouse VSMCs (FIG. 7c). The procedure: To obtain more direct evidence for the regulatory function of NO in a decrease in DPP-4 expression, it was determined whether DPP-4 promoter activity would be regulated by NO.
First, VSMCs were cultured in a 6-well plate to reach a confluency of 80%. Using Lipofectamine2000 (Life Technology), a DPP-4 reporter containing a normal or mutated NF-κB binding site was cloned into a pGL3-basic vector (Promega), and the cells were transfected with the vector. After 24 hours, firefly and Renilla luciferase activities in the cells were measured using a Dual-Glo luciferase assay system, (Promega). The firefly luciferase activity was normalized with the Renilla luciferase activity.

Experiment [2] relates to NF-κB. Description: NF-κB activity in VSMCs. The following applies: wild-type or eNOS-/- mouse VSMCs (FIG. 7d). Format: cell-based. From the text:
NF-κB activity in VSMCs is inhibited by NO. It was shown that NF-κB activity was higher in eNOS-/- mouse VSMCs than in wild-type mouse VSMCs, and this activity was reduced by treatment with DETA-NO (FIG. 7d). Because the DPP4 promoter has a putative NF-κB binding site, the present inventors determined whether NF-κB activity could directly regulate DPP-4 promoter activity.

Experiment [3] has as its system DPP-4. Description: DPP-4 mRNA and protein expression in VSMCs (RT-PCR, immunoblot). Format: cell-based, mouse. The procedure:
(§1) The aortas, extracted from the eNOS-/- mice and the wild-type mice together with the hearts in Example 2, were washed in serum-free M199 (Cellgro), cut to small pieces, and then cultured in M199 containing 20% fetal calf serum and 3 mg/mL collagenase (Sigma) in a water bath at 37°C for 3 hours. […] The isolated vascular smooth muscle cells were seeded at a concentration of 30%, and after 24 hours, the medium was replaced with osteogenic basal medium (Osteogenic SingleQuots, Lonza, USA). The medium was replaced at 3-day intervals during 28 days of culture.
In this Example, vascular smooth muscle cells obtained according to the method of Example 3 were treated with DETA-NONOate (DETA-NO) that is an NO donor.
A general note: A western blot detects proteins with antibodies after separation by electrophoresis.

The test system of experiment [4] is DPP-4. The following applies: stated as known; cited from earlier work.
For experiment [5], the system named is eNOS-/- mouse VSMCs (vascular smooth muscle cells). Description: ALP activity, inhibition of osteogenic differentiation of VSMCs. Also on record: dose or concentration left out as unconfirmed. The following applies: of each inhibitor for 7 days, 48-well plate, compared to negative control group not treated with the DPP-4 inhibitor. Format: cell-based. The procedure: as §1
In order to examine the effects of DPP-4 inhibitors other than sitagliptin on the inhibition of valvular calcification, the effects of treatment with various kinds of DPP-4 inhibitors on the inhibition of osteogenic differentiation of eNOS-/- mouse VSMCs (vascular smooth muscle cells) were evaluated.
eNOS-/- mouse VSMCs cultured in a 48-well plate were treated with […] of each of alogliptin, evogliptin, linaglipin, saxagliptin and vildagliptin for 7 days, and ALP activity in the cells was measured. As a result, ALP activity inhibition of 50% or lower compared to that in a negative control group not treated with the DPP-4 inhibitor was observed.

In experiment [6] the test system is Human aortic valvular interstitial cells (VICs). Briefly: Osteoblast differentiation (osteogenic ability) of human valvular interstitial cells. Format: cell-based. The following applies: human VICs treated with DPP-4 plus sitagliptin (FIG. 11). The procedure: Using human VICs, the role of DPP-4 in osteoblast differentiation was analyzed.
Human VICs were isolated from aortic valve leaflets according to a conventional cell isolation method, and VIC cells at passage 2 to 10 were used. The VIC cells were incubated with DPP-4 (R & D), sitagliptin or DETA-NONOate (Enzo Life Sciences).

In experiment [7] the test system is eNOS-/- mice. Briefly: Osteosense680 imaging of aortic calcification / osteogenic activity after oral administration. Type of experiment: in vivo. The following applies: oral sitagliptin 15 mg/kg/day for 12 weeks, Osteosense680 imaging (FIGS. 9a, 9b). The procedure: (§2) C57BL/6J eNOS-/- (endothelial nitric oxide synthase knockout) mice (8-week old, n = 10, The Jackson Laboratory, Bar Harbor, Me, USA) and C57BL/6J wild-type mice (8-week old, wide type, WT, n = 10) were used. After purchase, the mice were fed with standard rodent feed up to 3 months of age, and administered with saline or sitagliptin (15 mg/kg/ day, Merck & Co., Inc.) for 12 weeks.
To detect osteogenic activity in the eNOS-/- mice, a bisphosphonate-conjugated imaging agent (Osteosense680, VisEn Medical Inc.) was injected via the tail vein. Osteosense680 binds to a calcified site (particularly hydroxyapatite) in vivo and acts as an imaging agent to detect osteoblast activity. The mice were euthanized, and then the whole body or isolated aortas were imaged using OptixMX3 (ART Advanced Research Technologies, Inc).

Experiment [8] relates to aortic valves from the eNOS-/- mice. Description: von Kossa (VK) staining of aortic valve sections. Type of experiment: in vivo. The following applies: eNOS-/- mice after administration of sitagliptin (FIGS. 10a, 10b). The procedure: Human aortic valve samples were fixed in 4% formalin solution for 24 hours, and then embedded in paraffin and sectioned to a thickness of 4 µm. In order to observe calcium deposition in the paraffin-embedded aortic valve and the cardiac basal segment, Von Kossa (VK) staining and Alizarin red (AR) staining were performed. For Von Kossa staining, the aortic valve fixed in formalin was washed with distilled water, and then exposed to 5% water-soluble AgNO3 and intense light at room temperature for 60 minutes.
as §2

We go through 8 molecules from patent publication EP3263134A1, “COMPOSITION FOR PREVENTING OR TREATING VALVE CALCIFICATION, CONTAINING DPP-4 INHIBITOR” (The Asan Foundation, priority 2015, dated 2016).

Structures are written as SMILES.

As to `NCCN(CCN)[N+]([O-])=NO` [DETA-NO, DETA-NONOate], the DPP-4 promoter activity entry in experiment [1] is “inhibited by treatment with DETA-NO in a concentration-dependent manner”. Moreover, the NF-κB activity entry in experiment [2] is listed as “reduced”. The “expression of DPP-4 mRNA in the VSMCs” value in experiment [3] (RT-PCR after 24 hours of treatment with DETA-NO (FIG. 7a)) is “decreased”. Further, the “expression of DPP-4 protein in the VSMCs” value in experiment [3] (immunoblot after 48 hours of treatment with DETA-NO (FIG. 7b)) is “also decreased”.

Take `COC(=O)[C@@H](N)CCCNC(=N)N[N+](=O)[O-]` [L-NAME, Nω-nitro-L-arginine methyl ester]: the “DPP-4 expression in the aorta” value in experiment [4] is on record as “significantly increases DPP-4 expression in the aorta”.

Take `Cn1c(=O)cc(N2CCC[C@@H](N)C2)n(Cc2ccccc2C#N)c1=O` [alogliptin]: the ALP activity inhibition in experiment [5] is on record as not above 50%.

Turning to `CC(C)(C)OC[C@@H]1C(=O)NCCN1C(=O)C[C@H](N)Cc1cc(F)c(F)cc1F` [evogliptin], the ALP activity inhibition in experiment [5] is listed as not above 50%.

The molecule `CC#CCn1c(N2CCC[C@@H](N)C2)nc2c1c(=O)n(Cc1nc(C)c3ccccc3n1)c(=O)n2C` [linaglipin] displayed an ALP activity inhibition in experiment [5] not above 50%.

For the molecule `N#C[C@@H]1C[C@@H]2C[C@@H]2N1C(=O)[C@@H](N)C12CC3CC(CC(O)(C3)C1)C2` [saxagliptin], the ALP activity inhibition in experiment [5] is not above 50%.

Turning to `N[C@@H](CC(=O)N1CCn2c(nnc2C(F)(F)F)C1)Cc1cc(F)c(F)cc1F` [sitagliptin], the “DPP-4-induced increase of the osteogenic ability of VICs” value in experiment [6] was “eliminated”. Also, the “aortic calcification in the living mice” value in experiment [7] was “reduced aortic calcification”. In addition, the “aortic calcification in VK-stained sections of the aortic valves” value in experiment [8] was “aortic calcification can be inhibited”.

`N#C[C@@H]1CCCN1C(=O)CNC12CC3CC(CC(O)(C3)C1)C2` [vildagliptin] came in with an ALP activity inhibition in experiment [5] not above 50%.
